Columns and labels:
physchem = conditions: octanol/water
Description: Partition coefficient (logP)

[1] = target: T1, Androgen receptor (Rattus norvegicus) (UniProt P15207)
T1 sequence (whole entry): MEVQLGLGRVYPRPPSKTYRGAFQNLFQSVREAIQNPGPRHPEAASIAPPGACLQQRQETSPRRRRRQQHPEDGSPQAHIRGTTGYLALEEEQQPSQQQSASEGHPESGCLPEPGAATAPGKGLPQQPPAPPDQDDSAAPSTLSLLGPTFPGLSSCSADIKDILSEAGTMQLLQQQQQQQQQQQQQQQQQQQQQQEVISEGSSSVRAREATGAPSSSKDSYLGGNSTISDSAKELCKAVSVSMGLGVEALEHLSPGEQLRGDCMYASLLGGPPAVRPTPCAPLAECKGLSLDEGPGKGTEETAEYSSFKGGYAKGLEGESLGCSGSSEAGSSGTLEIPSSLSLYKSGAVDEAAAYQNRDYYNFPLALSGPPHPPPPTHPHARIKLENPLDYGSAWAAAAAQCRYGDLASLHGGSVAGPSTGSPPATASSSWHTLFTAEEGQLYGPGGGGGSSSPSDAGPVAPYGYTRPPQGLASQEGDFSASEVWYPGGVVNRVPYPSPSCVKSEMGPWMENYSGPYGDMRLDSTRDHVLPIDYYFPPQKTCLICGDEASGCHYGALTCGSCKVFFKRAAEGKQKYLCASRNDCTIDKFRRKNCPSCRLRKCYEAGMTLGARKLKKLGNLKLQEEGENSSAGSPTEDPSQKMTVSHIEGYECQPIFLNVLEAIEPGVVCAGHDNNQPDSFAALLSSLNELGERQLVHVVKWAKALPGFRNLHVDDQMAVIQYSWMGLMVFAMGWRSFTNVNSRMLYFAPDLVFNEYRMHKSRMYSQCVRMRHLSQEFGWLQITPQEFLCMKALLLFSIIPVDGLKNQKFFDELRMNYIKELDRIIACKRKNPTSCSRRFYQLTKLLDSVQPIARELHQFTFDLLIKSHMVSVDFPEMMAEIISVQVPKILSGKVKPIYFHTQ
Description: Binding selectivity index (BSI) as ratio of RBA for androgen receptor to non-specific binding of R1881

Row | Compound | logP (physchem) | BSI [1]
1 | C[C@]12CC[C@H]3[C@@H](CCC4=CC(=O)CC[C@@H]43)[C@@H]1CC[C@@H]2O [NANDROLONE] | 3.17 | –
2 | C[C@]12CC[C@H]3[C@@H](CCC4=CC(=O)CC[C@@]43C)[C@@H]1CC[C@@H]2O [TESTOSTERONE] | 3.45 | –
3 | C[C@]1(O)CC[C@H]2[C@@H]3CCC4=CC(=O)CCC4=C3C=C[C@@]21C [METRIBOLONE] | 3.29 | 100
4 | C[C@]12CC[C@H]3[C@@H](CC[C@H]4CC(=O)CC[C@@H]43)[C@@H]1CC[C@@H]2O | 3.85 | 13.7
